{
  "source": "ChEMBL document CHEMBL4732046",
  "about": "“A red-light-activated sulfonamide porphycene for highly efficient photodynamic therapy against hypoxic tumor” (Eur J Med Chem, 2021)",
  "key": {"B16 [1]": {"test_system": "B16", "assay": "Induction of intracellular reactive oxygen species production in mouse B16 cells assessed as […] membrane damage at 200 nM irradiated with 640 +/- 15 nm red LED for 1 hr measured after 4 hrs by mito-tracker green based confocal microscopic method", "assay_type": "functional, cell-based"}, "A-375 [2]": {"test_system": "A-375", "assay": "Induction of apoptosis in human A-375 cells assessed as increase in cytochrome c level at 100 to 300 nM irradiated with 640 +/- 15 nm red LED for 1 hrs measured after 24 hrs by Western blot analysis", "assay_type": "functional, cell-based", "details": "dose 100-300 nM"}, "A-375 [3]": {"test_system": "A-375", "assay": "Induction of apoptosis in human A-375 cells assessed as increase in cleaved caspase 9 level at 100 to 300 nM irradiated with 640 +/- 15 nm red LED for 1 hrs measured after 24 hrs by Western blot analysis", "assay_type": "functional, cell-based", "details": "dose 100-300 nM"}, "[4]": {"assay": "Toxicity in C57BL/6 mouse assessed as effect on lactate dehydrogenase level measured upto 14 days", "details": "in vivo, 336 h, time <=14 day"}, "A-375 [5]": {"test_system": "A-375", "assay": "Induction of morphological changes in human A-375 cells assessed as chromatin condensation at 100 to 300 nM incubated for 24 hrs by Hoechst 33258 staining based assay", "assay_type": "functional, cell-based", "details": "dose 100-300 nM"}, "[6]": {"assay": "Toxicity in C57BL/6 mouse model assessed as change in white blood cell count measured after 14 days", "assay_type": "tissue-based", "details": "336 h, time 14 day"}, "A-375 [7]": {"test_system": "A-375", "assay": "Antiproliferative activity against human A-375 cells assessed as inhibition of cell proliferation irradiated with 640 +/- 15 nm red LED for 4 hrs in presence of 30 uM L-histidine measured after 24 hrs under hypoxic condition by MTT assay", "assay_type": "functional, cell-based"}, "A-375 [8]": {"test_system": "A-375", "assay": "Photocytotoxicity against human A-375 cells assessed as reduction in cell viability irradiated with 640 +/- 15 nm red LED for 4 hrs measured after 24 hrs by MTT assay", "assay_type": "functional, cell-based", "details": "A-375, light or radiation study"}, "A-375 [9]": {"test_system": "A-375", "assay": "Induction of apoptosis in human A-375 cells assessed as apoptotic cells at 300 nM […] irradiated with 640 +/- 15 nm red LED for 1 hrs after 24 hrs by Annexin V-FITC/propidium iodide staining based flow cytometric analysis relative to control", "assay_type": "functional, cell-based"}, "B16 [10]": {"test_system": "B16", "assay": "Induction of apoptosis in mouse B16 cells assessed as increase in cytochrome c level at 200 to 400 nM irradiated with 640 +/- 15 nm red LED for 1 hrs measured after 24 hrs by Western blot analysis", "assay_type": "functional, cell-based", "details": "dose 200-400 nM"}, "[11]": {"assay": "Drug uptake in mouse B16 cells mitochondria incubated for 24 hrs by mito-tracker green based confocal microscopic method", "assay_type": "ADME", "details": "b16, 24 h"}, "B16 [12]": {"test_system": "B16", "assay": "Photocytotoxicity against mouse B16 cells assessed as reduction in cell viability irradiated with 640 +/- 15 nm red LED for 4 hrs measured after 24 hrs by MTT assay", "assay_type": "functional, cell-based", "details": "B16, light or radiation study"}, "B16 [13]": {"test_system": "B16", "assay": "Induction of apoptosis in mouse B16 cells assessed as increase in cleaved caspase 9 level at 200 to 400 nM irradiated with 640 +/- 15 nm red LED for 1 hrs measured after 24 hrs by Western blot analysis", "assay_type": "functional, cell-based", "details": "dose 200-400 nM"}, "[14]": {"assay": "Drug uptake in human A-375 cells mitochondria incubated for 24 hrs by mito-tracker green based confocal microscopic method", "assay_type": "ADME", "details": "a-375, 24 h"}, "A-375 [15]": {"test_system": "A-375", "assay": "Induction of morphological changes in human A-375 cells assessed as nuclear shrinkage at 100 to 300 nM incubated for 24 hrs by Hoechst 33258 staining based assay", "assay_type": "functional, cell-based", "details": "dose 100-300 nM"}, "[16]": {"assay": "Toxicity in C57BL/6 mouse assessed as effect on alanine aminotransferase level measured after 7 days", "details": "in vivo, 168 h, time 7 day"}, "[17]": {"assay": "Toxicity in C57BL/6 mouse model assessed as effect on liver treated intratumorally once every 2 days for 2 weeks followed every dosing irradiated with 640 +/- 15 nm red LED for 4 hrs measured upto 28 days by H and E staining dependent light microscopy based histopathological analysis", "assay_type": "tissue-based", "details": "in vivo, other, time <=28 day"}, "B16 [18]": {"test_system": "B16", "assay": "(§1) Antitumor activity against mouse B16 cells xenografted in C57BL/6 mouse assessed as tumor growth inhibition by measuring nuclear pyknosis treated at high dose intratumorally once every 2 days for 2 weeks followed every dosing irradiated with 640 +/- 15 nm red LED for 4 hrs measured after 14 days treatment", "assay_type": "functional, cell-based", "details": "time 14.0 day"}, "[19]": {"assay": "Drug uptake in mouse B16 cells upto 2 hrs by flow cytometric analysis", "assay_type": "ADME, cell-based", "details": "b16, 2 h"}, "A-375 [20]": {"test_system": "A-375", "assay": "Antitumor activity against human A-375 cells xenografted in BALB/c mouse assessed as reduction in tumor volume at 50 uM, IT once every 2 days for 2 weeks followed every dosing irradiated with 640 +/- 15 nm red LED for 4 hrs", "assay_type": "functional, cell-based"}, "B16 [21]": {"test_system": "B16", "assay": "as §1, with “TUNEL-positive” for “pyknosis”", "assay_type": "functional, cell-based", "details": "time 14.0 day"}, "[22]": {"assay": "Drug uptake in human A-375 cells upto 2 hrs by flow cytometric analysis", "assay_type": "ADME, cell-based", "details": "a-375, 2 h"}, "B16 [23]": {"test_system": "B16", "assay": "Induction of apoptosis in mouse B16 cells assessed as increase in cleaved caspase 3 level at 200 to 400 nM irradiated with 640 +/- 15 nm red LED for 1 hrs measured after 24 hrs by Western blot analysis", "assay_type": "functional, cell-based", "details": "dose 200-400 nM"}, "A-375 [24]": {"test_system": "A-375", "assay": "Antitumor activity against human A-375 cells xenografted in BALB/c mouse assessed as tumor growth inhibition at 50 uM, IT once every 2 days for 2 weeks followed every dosing irradiated with 640 +/- 15 nm red LED for 4 hrs", "assay_type": "functional, cell-based"}, "HeLa": {"test_system": "HeLa", "assay": "Photocytotoxicity against human HeLa cells assessed as reduction in cell viability irradiated with 640 +/- 15 nm red LED for 4 hrs measured after 24 hrs by MTT assay", "assay_type": "functional, cell-based", "details": "light or radiation study"}, "B16 [25]": {"test_system": "B16", "assay": "Induction of apoptosis in mouse B16 cells assessed as apoptotic cells at 400 nM irradiated with 640 +/- 15 nm red LED for 1 hrs after 24 hrs by Annexin V-FITC/propidium iodide staining based flow cytometric analysis relative to control", "assay_type": "functional, cell-based"}, "[26]": {"assay": "Toxicity in C57BL/6 mouse assessed as effect on aspartate aminotransferase level measured after 2 days", "details": "in vivo, 48 h, time 2 day"}, "A-375 [27]": {"test_system": "A-375", "assay": "Photocytotoxicity against human A-375 cells assessed as reduction in cell viability irradiated with 640 +/- 15 nm red LED for 4 hrs measured after 24 hrs under hypoxic condition by MTT assay", "assay_type": "functional, cell-based", "details": "A-375, light or radiation study"}, "A-375 [28]": {"test_system": "A-375", "assay": "as §1, with “human A-375” for “mouse B16”, “BALB/c” for “C57BL/6”, “TUNEL-positive” for “pyknosis”", "assay_type": "functional, cell-based", "details": "time 14.0 day"}, "A-375 [29]": {"test_system": "A-375", "assay": "Induction of apoptosis in human A-375 cells assessed as increase in cleaved caspase 3 level at 100 to 300 nM irradiated with 640 +/- 15 nm red LED for 1 hrs measured after 24 hrs by Western blot analysis", "assay_type": "functional, cell-based", "details": "dose 100-300 nM"}, "A-375 [30]": {"test_system": "A-375", "assay": "Antiproliferative activity against human A-375 cells assessed as inhibition of cell proliferation irradiated with 640 +/- 15 nm red LED for 4 hrs in presence of 30 uM L-histidine measured after 24 hrs by MTT assay", "assay_type": "functional, cell-based"}, "B16 [31]": {"test_system": "B16", "assay": "Antiproliferative activity against mouse B16 cells assessed as inhibition of cell proliferation irradiated with 640 +/- 15 nm red LED for 4 hrs in presence of 30 uM D-mannitol measured after 24 hrs by MTT assay", "assay_type": "functional, cell-based"}, "A-375 [32]": {"test_system": "A-375", "assay": "Induction of apoptosis in human A-375 cells assessed as increase in Bad level at 100 to 300 nM irradiated with 640 +/- 15 nm red LED for 1 hrs measured after 24 hrs by Western blot analysis", "assay_type": "functional, cell-based", "details": "dose 100-300 nM"}},
  "note": "The source made the active and inactive calls. The rule behind the calls is not given here.",
  "data": [
    {"smiles": "CC(C)(C)C1=Cc2nc1ccc1[nH]c(cc1S(=O)(=O)NCCOCCO)c1nc(ccc3[nH]c2cc3C(C)(C)C)C(C(C)(C)C)=C1", "values": [
      {"measurement": "Activity", "setting": "B16 [1]", "result": "Active"},
      {"measurement": "Activity", "setting": "A-375 [2]", "result": "Active"},
      {"measurement": "Activity", "setting": "A-375 [3]", "result": "Active"},
      {"measurement": "Activity", "setting": "[4]", "result": "Non-Toxic"},
      {"measurement": "Activity", "setting": "A-375 [5]", "result": "Active"},
      {"measurement": "Activity", "setting": "[6]", "result": "Non-Toxic"},
      {"measurement": "Activity", "setting": "A-375 [7]", "result": "Active"},
      {"measurement": "DC50", "setting": "A-375 [8]", "result": 192, "unit": "nM"},
      {"measurement": "Activity", "setting": "A-375 [9]", "result": "Active"},
      {"measurement": "Activity", "setting": "B16 [10]", "result": "Active"},
      {"measurement": "Drug uptake", "setting": "[11]", "result": "Active"},
      {"measurement": "DC50", "setting": "B16 [12]", "result": 323, "unit": "nM"},
      {"measurement": "Activity", "setting": "B16 [13]", "result": "Active"},
      {"measurement": "Drug uptake", "setting": "[14]", "result": "Active"},
      {"measurement": "Activity", "setting": "A-375 [15]", "result": "Active"},
      {"measurement": "Activity", "setting": "[16]", "result": "Toxic"},
      {"measurement": "Activity", "setting": "[17]", "result": "Non-Toxic"},
      {"measurement": "Activity", "setting": "B16 [18]", "result": "Active"},
      {"measurement": "Drug uptake", "setting": "[19]", "result": "Active"},
      {"measurement": "Activity", "setting": "A-375 [20]", "result": "Active"},
      {"measurement": "Activity", "setting": "B16 [21]", "result": "Active"},
      {"measurement": "Drug uptake", "setting": "[22]", "result": "Active"},
      {"measurement": "Activity", "setting": "B16 [23]", "result": "Active"},
      {"measurement": "Activity", "setting": "A-375 [24]", "result": "Active"},
      {"measurement": "DC50", "setting": "HeLa", "result": 15, "unit": "nM"},
      {"measurement": "Activity", "setting": "B16 [25]", "result": "Active"},
      {"measurement": "Activity", "setting": "[26]", "result": "Toxic"},
      {"measurement": "DC50", "setting": "A-375 [27]", "result": 324, "unit": "nM"},
      {"measurement": "Activity", "setting": "A-375 [28]", "result": "Active"},
      {"measurement": "Activity", "setting": "A-375 [29]", "result": "Active"},
      {"measurement": "Activity", "setting": "A-375 [30]", "result": "Active"},
      {"measurement": "Activity", "setting": "B16 [31]", "result": "inactive"},
      {"measurement": "Activity", "setting": "A-375 [32]", "result": "Active"}
    ]}
  ]
}
